Patent US6689773B2, “Uracil substituted phenyl sulfamoyl carboxamides” (BASF Aktiengesellschaft, priority 2000, dated 2004)

Experiments:
Format in all cases: in vivo
[1] = system: SETVI, Green foxtail, Setaria viridis, (L.)Beau; assay: Preemergence herbicidal evaluation (Example 148); details: rating scale 0-9, two to four weeks after treatment
Summary of the method: (§1)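 Greenhouse cups of separately sown species were treated pre-emergence at about 0.125–0.250 kg/ha. Evaluation was visual, 2–4 weeks after spraying, with averaged values for repeated tests.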

[2] = system: ECHCG, Barnyardgrass, Echinochloa crusgalli, (L.)Beau; assay: Preemergence herbicidal evaluation (Example 148); details: rating scale 0-9, two to four weeks after treatment
Summary of the method: as §1

[3] = system: TRZAW, Winter wheat, Tritium Aestivum, L. (Winter); assay: Preemergence herbicidal evaluation (Example 148); details: rating scale 0-9, two to four weeks after treatment
Summary of the method: as §1

[4] = system: IPOHE, Morningglory, Ivyleaf, Ipomoea hederacea, (L)Jacq.; assay: Preemergence herbicidal evaluation (Example 148); details: rating scale 0-9, two to four weeks after treatment
Summary of the method: as §1

[5] = system: CHEAL, Lambsquarters, Chenopodium album, L. Common; assay: Preemergence herbicidal evaluation (Example 148); details: rating scale 0-9, two to four weeks after treatment
Summary of the method: as §1

[6] = system: AMBEL, Ragweed, Common, Ambrosia artemiisifolia, L.; assay: Preemergence herbicidal evaluation (Example 148); details: rating scale 0-9, two to four weeks after treatment
Summary of the method: as §1

[7] = system: ABUTH, Velvetleaf, Abutilon theophrasti, Medic.; assay: Preemergence herbicidal evaluation (Example 148); details: rating scale 0-9, two to four weeks after treatment
Summary of the method: as §1

[8] = system: GLXMA, Soybean, Glycine max, (L.) Merr.; assay: Preemergence herbicidal evaluation (Example 148); details: rating scale 0-9, two to four weeks after treatment
Summary of the method: as §1

[9] = system: ZEAMX, Field corn, Zea mays L.; assay: Preemergence herbicidal evaluation (Example 148); details: rating scale 0-9, two to four weeks after treatment
Summary of the method: as §1

[10] = system: XANST, Cocklebur, Xanthium strumariam; assay: Preemergence herbicidal evaluation (Example 148); details: rating scale 0-9, two to four weeks after treatment
Summary of the method: as §1

[11] = system: DIGSA, Crabgrass, (Hairy) L, Digitaria sanguinalis, (L)Scop; assay: Preemergence herbicidal evaluation (Example 148); details: rating scale 0-9, two to four weeks after treatment
Summary of the method: as §1

[12] = system: ALOMY, Blackgrass, Alopecurus myosuroides; assay: Preemergence herbicidal evaluation (Example 148); details: rating scale 0-9, two to four weeks after treatment
Summary of the method: as §1

[13] = system: SETVI, Green foxtail, Setaria viridis, (L.)Beau; assay: Postemergence herbicidal evaluation (Example 147); details: rating scale 0-9, two to three weeks after treatment
Summary of the method: (§2)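 Spray carrier: 80/20 acetone/water, 1.0% SUN-IT II methylated seed oil; rate about 0.016 to 0.032 kg/ha at 40 psi onto two-week seedlings. Assessment: plant stand, vigor, chlorosis and malformation scored 0-9 versus control, two to three weeks after treatment.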

[14] = system: ECHCG, Barnyardgrass, Echinochloa crusgalli, (L.)Beau; assay: Postemergence herbicidal evaluation (Example 147); details: rating scale 0-9, two to three weeks after treatment
Summary of the method: as §2

[15] = system: TRZAW, Winter wheat, Tritium Aestivum, L. (Winter); assay: Postemergence herbicidal evaluation (Example 147); details: rating scale 0-9, two to three weeks after treatment
Summary of the method: as §2

[16] = system: IPOHE, Morningglory, Ivyleaf, Ipomoea hederacea, (L)Jacq.; assay: Postemergence herbicidal evaluation (Example 147); details: rating scale 0-9, two to three weeks after treatment
Summary of the method: as §2

[17] = system: CHEAL, Lambsquarters, Chenopodium album, L. Common; assay: Postemergence herbicidal evaluation (Example 147); details: rating scale 0-9, two to three weeks after treatment
Summary of the method: as §2

[18] = system: AMBEL, Ragweed, Common, Ambrosia artemiisifolia, L.; assay: Postemergence herbicidal evaluation (Example 147); details: rating scale 0-9, two to three weeks after treatment
Summary of the method: as §2

[19] = system: ABUTH, Velvetleaf, Abutilon theophrasti, Medic.; assay: Postemergence herbicidal evaluation (Example 147); details: rating scale 0-9, two to three weeks after treatment
Summary of the method: as §2

[20] = system: GLXMA, Soybean, Glycine max, (L.) Merr.; assay: Postemergence herbicidal evaluation (Example 147); details: rating scale 0-9, two to three weeks after treatment
Summary of the method: as §2

[21] = system: ZEAMX, Field corn, Zea mays L.; assay: Postemergence herbicidal evaluation (Example 147); details: rating scale 0-9, two to three weeks after treatment
Summary of the method: as §2

[22] = system: XANST, Cocklebur, Xanthium strumariam; assay: Postemergence herbicidal evaluation (Example 147); details: rating scale 0-9, two to three weeks after treatment
Summary of the method: as §2

[23] = system: DIGSA, Crabgrass, (Hairy) L, Digitaria sanguinalis, (L)Scop; assay: Postemergence herbicidal evaluation (Example 147); details: rating scale 0-9, two to three weeks after treatment
Summary of the method: as §2

[24] = system: ALOMY, Blackgrass, Alopecurus myosuroides; assay: Postemergence herbicidal evaluation (Example 147); details: rating scale 0-9, two to three weeks after treatment
Summary of the method: as §2

Cn1c(C(F)(F)F)cc(=O)n(-c2cc(C(=O)NS(=O)(=O)NC3CCCC3)c(Cl)cc2F)c1=O [Example 78]
Preemergence herbicidal rating SETVI ([1]; rate 0.125 kg/ha): 5.0 | Preemergence herbicidal rating SETVI ([1]; rate 0.25 kg/ha): 7.0 | Preemergence herbicidal rating ECHCG ([2]; rate 0.125 kg/ha): 4.0 | Preemergence herbicidal rating ECHCG ([2]; rate 0.25 kg/ha): 7.0 | Preemergence herbicidal rating TRZAW ([3]; rate 0.125 kg/ha): 1.0 | Preemergence herbicidal rating TRZAW ([3]; rate 0.25 kg/ha): 1.0 | Preemergence herbicidal rating IPOHE ([4]; rate 0.125 kg/ha): 9.0 | Preemergence herbicidal rating IPOHE ([4]; rate 0.25 kg/ha): 9.0 | Preemergence herbicidal rating CHEAL ([5]; rate 0.125 kg/ha): 9.0 | Preemergence herbicidal rating CHEAL ([5]; rate 0.25 kg/ha): 9.0 | Preemergence herbicidal rating AMBEL ([6]; rate 0.125 kg/ha): 9.0 | Preemergence herbicidal rating AMBEL ([6]; rate 0.25 kg/ha): 9.0 | Preemergence herbicidal rating ABUTH ([7]; rate 0.125 kg/ha): 9.0 | Preemergence herbicidal rating ABUTH ([7]; rate 0.25 kg/ha): 9.0 | Preemergence herbicidal rating GLXMA ([8]; rate 0.125 kg/ha): 3.0 | Preemergence herbicidal rating GLXMA ([8]; rate 0.25 kg/ha): 5.0 | Preemergence herbicidal rating ZEAMX ([9]; rate 0.125 kg/ha): 0.0 | Preemergence herbicidal rating ZEAMX ([9]; rate 0.25 kg/ha): 1.0 | Preemergence herbicidal rating XANST ([10]; rate 0.125 kg/ha): 9.0 | Preemergence herbicidal rating XANST ([10]; rate 0.25 kg/ha): 9.0 | Preemergence herbicidal rating DIGSA ([11]; rate 0.125 kg/ha): 4.0 | Preemergence herbicidal rating DIGSA ([11]; rate 0.25 kg/ha): 8.0 | Preemergence herbicidal rating ALMOY ([12]; rate 0.125 kg/ha): 1.0 | Preemergence herbicidal rating ALMOY ([12]; rate 0.25 kg/ha): 2.0 | Postemergence herbicidal rating SETVI ([13]; rate 0.016 kg/ha): 8.0 | Postemergence herbicidal rating SETVI ([13]; rate 0.032 kg/ha): 9.0 | Postemergence herbicidal rating ECHCG ([14]; rate 0.016 kg/ha): 8.0 | Postemergence herbicidal rating ECHCG ([14]; rate 0.032 kg/ha): 9.0 | Postemergence herbicidal rating TRZAW ([15]; rate 0.016 kg/ha): 5.5 | Postemergence herbicidal rating TRZAW ([15]; rate 0.032 kg/ha): 6.5 | Postemergence herbicidal rating IPOHE ([16]; rate 0.016 kg/ha): 9.0 | Postemergence herbicidal rating IPOHE ([16]; rate 0.032 kg/ha): 9.0 | Postemergence herbicidal rating CHEAL ([17]; rate 0.016 kg/ha): 7.0 | Postemergence herbicidal rating CHEAL ([17]; rate 0.032 kg/ha): 9.0 | Postemergence herbicidal rating AMBEL ([18]; rate 0.016 kg/ha): 9.0 | Postemergence herbicidal rating AMBEL ([18]; rate 0.032 kg/ha): 9.0 | Postemergence herbicidal rating ABUTH ([19]; rate 0.016 kg/ha): 9.0 | Postemergence herbicidal rating ABUTH ([19]; rate 0.032 kg/ha): 9.0 | Postemergence herbicidal rating GLXMA ([20]; rate 0.016 kg/ha): 7.0 | Postemergence herbicidal rating GLXMA ([20]; rate 0.032 kg/ha): 8.0 | Postemergence herbicidal rating ZEAMX ([21]; rate 0.016 kg/ha): 6.5 | Postemergence herbicidal rating ZEAMX ([21]; rate 0.032 kg/ha): 7.0 | Postemergence herbicidal rating XANST ([22]; rate 0.016 kg/ha): 9.0 | Postemergence herbicidal rating XANST ([22]; rate 0.032 kg/ha): 9.0 | Postemergence herbicidal rating DIGSA ([23]; rate 0.016 kg/ha): 5.0 | Postemergence herbicidal rating DIGSA ([23]; rate 0.032 kg/ha): 6.0 | Postemergence herbicidal rating ALMOY ([24]; rate 0.016 kg/ha): 2.0 | Postemergence herbicidal rating ALMOY ([24]; rate 0.032 kg/ha): 2.0
